Like-named read-outs stand apart in the source and are kept apart here.
Tests used:
[1] = target: FLNA pentapeptide of SEQ ID NO: 1 (Bn-VAKGL) (Homo sapiens, UniProt P21333); assay: FITC-NLX-based FLNA screening assay (inhibition of FITC-naloxone binding to Bn-VAKGL on streptavidin plates); conditions: 10 nM FITC-NLX
mu opiate receptor (MOR) = assay: MOR agonist activity using [35S]GTPγS binding assay in striatal membranes; format: biochemical; conditions: for MOR agonist activity ([35S]GTPγS binding), FLNA-Binding Compound as Agonist 1 μM + BFNA: 1 μM compound + 1 μM β-funaltrexamine
Method in brief: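 Striatal membranes (200 μg) were preincubated 5 min at 30 °C in HEPES pH 7.5 with 100 mM NaCl, 1 mM MgCl2 and 0.5 nM [35S]GTPγS, then 5 min more with 0.1–10 μM compound. Gαo was immunoprecipitated and bound radioactivity counted by scintillation.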

[2] = read-out: Percent Binding Inhibition, FLNA-binding compound 0.01 μM
[3] = read-out: Percent Binding Inhibition, FLNA-binding compound 0.1 μM
[4] = read-out: Percent Binding Inhibition, FLNA-binding compound 1 μM
[5] = Series B, 0.1 μM compound, relative to DAMGO
[6] = Series B, 0.1 μM compound, [35S]GTPγS binding to Gαo, striatal membranes
[7] = Series B, 1 μM compound + 1 μM β-FNA
[8] = Series B, 1 μM compound + β-FNA, relative to DAMGO + BFNA
[9] = Series B, 1 μM compound, relative to DAMGO
[10] = Series B, 1 μM compound, [35S]GTPγS binding to Gαo, striatal membranes
[11] = Series C-1, 0.1 μM compound, relative to DAMGO
[12] = Series C-1, 0.1 μM compound, [35S]GTPγS binding to Gαo, striatal membranes
[13] = Series C-1, 1 μM compound + 1 μM β-FNA
[14] = Series C-1, 1 μM compound + β-FNA, relative to DAMGO + BFNA
[15] = Series C-1, 1 μM compound, relative to DAMGO
[16] = Series C-1, 1 μM compound, [35S]GTPγS binding to Gαo, striatal membranes
[17] = FLNA-binding compound 0.01 μM, read-out: Percent Binding Inhibition
[18] = FLNA-binding compound 0.1 μM, read-out: Percent Binding Inhibition
[19] = FLNA-binding compound 1 μM, read-out: Percent Binding Inhibition
[20] = Series C-2, 0.1 μM compound, relative to DAMGO
[21] = Series C-2, 0.1 μM compound, [35S]GTPγS binding to Gαo, striatal membranes
[22] = Series C-2, 1 μM compound + 1 μM β-FNA
[23] = Series C-2, 1 μM compound + β-FNA, relative to DAMGO + BFNA
[24] = Series C-2, 1 μM compound, relative to DAMGO
[25] = Series C-2, 1 μM compound, [35S]GTPγS binding to Gαo, striatal membranes
[26] = 0.1 μM compound relative to DAMGO
[27] = 1 μM compound + BFNA relative to DAMGO + BFNA
[28] = 1 μM compound relative to DAMGO

Structure (SMILES) | inhibition at 0.01 µM [1, 2] [%] | inhibition at 0.1 µM [1, 3] [%] | inhibition at 1 µM [1, 4] [%] | inhibition at 0.01 µM [1, 17] [%] | inhibition at 0.1 µM [1, 18] [%] | inhibition at 1 µM [1, 19] [%] | MOR agonist activity ([35S]GTPγS binding), FLNA-Binding Compound as Agonist 0.1 μM (mu opiate receptor (MOR); 0.1 μM compound) [%] | % DAMGO (0.1 μM) (mu opiate receptor (MOR); [26]) [%] | MOR agonist activity ([35S]GTPγS binding), FLNA-Binding Compound as Agonist 1 μM (mu opiate receptor (MOR); 1 μM compound) [%] | MOR agonist activity ([35S]GTPγS binding), FLNA-Binding Compound as Agonist 1 μM + BFNA (mu opiate receptor (MOR)) [%] | % DAMGO + BFNA (mu opiate receptor (MOR); [27]) [%] | % DAMGO (1 μM) (mu opiate receptor (MOR); [28]) [%] | also measured
COc1c2c(cc3c1C(CC(=O)Cc1ccc(Br)cc1)[N+](C)(C)CC3)OCO2 (stereo not drawn) [Compound B0011] | 40.9 | 50.3 | 55.8 |  |  |  |  |  |  |  |  |  | % DAMGO (0.1 μM) (mu opiate receptor (MOR); [5]): 95.7%; MOR agonist activity, percent [35S]GTPγS binding at the stated compound concentration (mu opiate receptor (MOR); [6]): 158.6%; MOR agonist activity, percent [35S]GTPγS binding at the stated compound concentration (mu opiate receptor (MOR); [7]): 78.0%; % DAMGO + BFNA (mu opiate receptor (MOR); [8]): 120.0%; % DAMGO (1 μM) (mu opiate receptor (MOR); [9]): 78.7%; MOR agonist activity, percent [35S]GTPγS binding at the stated compound concentration (mu opiate receptor (MOR); [10]): 212.6%
COc1c2c(cc3c1C(CC(=O)Cc1ccccc1C)[N+](C)(C)CC3)OCO2 (stereo not drawn) [Compound B0031] | 36.2 | 44.2 | 50.5 |  |  |  |  |  |  |  |  |  | % DAMGO (0.1 μM) (mu opiate receptor (MOR); [5]): 109.6%; MOR agonist activity, percent [35S]GTPγS binding at the stated compound concentration (mu opiate receptor (MOR); [6]): 210.8%; MOR agonist activity, percent [35S]GTPγS binding at the stated compound concentration (mu opiate receptor (MOR); [7]): 28.8%; % DAMGO + BFNA (mu opiate receptor (MOR); [8]): 65.6%; % DAMGO (1 μM) (mu opiate receptor (MOR); [9]): 99.6%; MOR agonist activity, percent [35S]GTPγS binding at the stated compound concentration (mu opiate receptor (MOR); [10]): 272.0%
Cc1ccccc1S(=O)(=O)N1CCC2(CC1)OCCN2S(=O)(=O)c1ccccc1C [Compound C0015] | 31.2 | 40.6 | 45.5 |  |  |  |  |  |  |  |  |  | % DAMGO (0.1 μM) (mu opiate receptor (MOR); [11]): 78.5%; Concentration of FLNA-Binding Compound as Agonist 0.1 μM (mu opiate receptor (MOR); [12]): 138.7%; Concentration of FLNA-Binding Compound as Agonist 1 μM + BFNA (mu opiate receptor (MOR); [13]): 126.8%; % DAMGO + BFNA (mu opiate receptor (MOR); [14]): 193.0%; % DAMGO (1 μM) (mu opiate receptor (MOR); [15]): 78.9%; Concentration of FLNA-Binding Compound as Agonist 1 μM (mu opiate receptor (MOR); [16]): 204.7%
CC(=O)c1ccc(S(=O)(=O)N2CCC3(CC2)NCCS3)cc1 [Compound C0060] |  |  |  | 60.3 | 64 | 68 |  |  |  |  |  |  | % DAMGO (0.1 μM) (mu opiate receptor (MOR); [20]): 114.8%; MOR agonist activity, percent [35S]GTPγS binding at the stated compound concentration (mu opiate receptor (MOR); [21]): 166.5%; MOR agonist activity, percent [35S]GTPγS binding at the stated compound concentration (mu opiate receptor (MOR); [22]): 143.9%; % DAMGO + BFNA (mu opiate receptor (MOR); [23]): 327.0%; % DAMGO (1 μM) (mu opiate receptor (MOR); [24]): 93.9%; MOR agonist activity, percent [35S]GTPγS binding at the stated compound concentration (mu opiate receptor (MOR); [25]): 218.9%
COc1ccc(C(=O)CC2c3c(cc4c(c3OC)OCO4)CC[N+]2(C)C)c(F)c1 (stereo not drawn) [Compound B0027] | 40.2 | 46.7 | 49.8 |  |  |  |  |  |  |  |  |  | % DAMGO (0.1 μM) (mu opiate receptor (MOR); [5]): 82.3%; MOR agonist activity, percent [35S]GTPγS binding at the stated compound concentration (mu opiate receptor (MOR); [6]): 140.9%; MOR agonist activity, percent [35S]GTPγS binding at the stated compound concentration (mu opiate receptor (MOR); [7]): 21.6%; % DAMGO + BFNA (mu opiate receptor (MOR); [8]): 41.5%; % DAMGO (1 μM) (mu opiate receptor (MOR); [9]): 100.0%; MOR agonist activity, percent [35S]GTPγS binding at the stated compound concentration (mu opiate receptor (MOR); [10]): 266.9%
COc1ccc(CCC(O)CC2c3c(cc4c(c3OC)OCO4)CCN2C)cc1 (stereo not drawn) [Compound B0048] |  |  |  | 34.7 | 41.9 | 43.9 |  |  |  |  |  |  | % DAMGO (0.1 μM) (mu opiate receptor (MOR); [5]): 104.8%; MOR agonist activity, percent [35S]GTPγS binding at the stated compound concentration (mu opiate receptor (MOR); [6]): 185.1%; MOR agonist activity, percent [35S]GTPγS binding at the stated compound concentration (mu opiate receptor (MOR); [7]): 78.5%; % DAMGO + BFNA (mu opiate receptor (MOR); [8]): 298.5%; % DAMGO (1 μM) (mu opiate receptor (MOR); [9]): 87.8%; MOR agonist activity, percent [35S]GTPγS binding at the stated compound concentration (mu opiate receptor (MOR); [10]): 223.4%
CCN1CCC2(CC1)OCCN2S(=O)(=O)c1ccc(OC)cc1 [Compound C0089M] |  |  |  | 40.7 | 46.1 | 51.2 |  |  |  |  |  |  | % DAMGO (0.1 μM) (mu opiate receptor (MOR); [20]): 136.3%; MOR agonist activity, percent [35S]GTPγS binding at the stated compound concentration (mu opiate receptor (MOR); [21]): 234.5%; MOR agonist activity, percent [35S]GTPγS binding at the stated compound concentration (mu opiate receptor (MOR); [22]): 81.9%; % DAMGO + BFNA (mu opiate receptor (MOR); [23]): 237.4%; % DAMGO (1 μM) (mu opiate receptor (MOR); [24]): 134.4%; MOR agonist activity, percent [35S]GTPγS binding at the stated compound concentration (mu opiate receptor (MOR); [25]): 295.3%
CC1CCC(C(C)C)C(OCC(O)Cn2cccc2)C1 (stereo not drawn) [Compound A0038] | 46.4 | 52.3 | 56.6 |  |  |  | 176.7 | 90.1 | 234.5 | 107.0 | 144.8 | 85.0 | 
Cc1ccc(C(C)C)c(OCC(O)CN2CC(C)OC(C)C2)c1 (stereo not drawn) [Compound A0028] |  |  |  | 39.5 | 43.8 | 50.5 | 143.6 | 81.3 | 187.7 | 116.7 | 443.7 | 73.8 | 
CC1CN(CC(O)COc2cccc(C(F)(F)F)c2)CC(C)O1 (stereo not drawn) [Compound A0051] |  |  |  | 45.9 | 45.4 | 52.1 | 290.4 | 148.0 | 386.6 | 211.6 | 286.3 | 140.1 | 
CC1CCC(C(C)C)C(OCC(O)CN2CCC(=O)C(C)C2)C1 (stereo not drawn) [Compound A0056] | 34.4 | 40.9 | 41.3 |  |  |  | 115.6 | 74.1 | 129.6 | 17.4 | 43.6 | 56.2 | 
CC1CCC(C(C)C)C(OCC(O)CN2CCN(CCN3CCOCC3)CC2)C1 (stereo not drawn) [Compound A0011] |  |  |  | 45.7 | 51.1 | 52.8 | 236.3 | 158.2 | 287.5 | 47.0 | 177.4 | 124.9 | 
O=S(=O)(c1ccc2ccccc2c1)N1CCC2(CC1)OCCN2S(=O)(=O)c1ccc2ccccc2c1 [Compound C0140M] | 42.3 | 49.2 | 54.4 |  |  |  |  |  |  |  |  |  | % DAMGO (0.1 μM) (mu opiate receptor (MOR); [11]): 85.8%; Concentration of FLNA-Binding Compound as Agonist 0.1 μM (mu opiate receptor (MOR); [12]): 126.1%; Concentration of FLNA-Binding Compound as Agonist 1 μM + BFNA (mu opiate receptor (MOR); [13]): 83.0%; % DAMGO + BFNA (mu opiate receptor (MOR); [14]): 211.2%; % DAMGO (1 μM) (mu opiate receptor (MOR); [15]): 106.5%; Concentration of FLNA-Binding Compound as Agonist 1 μM (mu opiate receptor (MOR); [16]): 215.4%
COc1ccccc1C(=O)CC1c2c(cc3c(c2OC)OCO3)CC[N+]1(C)C (stereo not drawn) [Compound B0025] | 41.7 | 49.4 | 56.6 |  |  |  |  |  |  |  |  |  | % DAMGO (0.1 μM) (mu opiate receptor (MOR); [5]): 96.3%; MOR agonist activity, percent [35S]GTPγS binding at the stated compound concentration (mu opiate receptor (MOR); [6]): 159.6%; MOR agonist activity, percent [35S]GTPγS binding at the stated compound concentration (mu opiate receptor (MOR); [7]): 137.7%; % DAMGO + BFNA (mu opiate receptor (MOR); [8]): 211.8%; % DAMGO (1 μM) (mu opiate receptor (MOR); [9]): 86.8%; MOR agonist activity, percent [35S]GTPγS binding at the stated compound concentration (mu opiate receptor (MOR); [10]): 234.6%
CC1CCC(C(C)C)C(OCC(O)CN2CCc3ccccc3C2)C1 (stereo not drawn) [Compound A0040] | 45 | 50.4 | 56.3 |  |  |  | 46.1 | 23.5 | 149.0 | 16.7 | 22.6 | 54.0 | 
OC(COc1ccc(Br)c(F)c1)CN1CCc2ccccc2C1 (stereo not drawn) [Compound A0057] |  |  |  | 29.1 | 37 | 43.4 | 124.2 | 79.6 | 192.1 | 44.8 | 112.3 | 83.3 | 
CC1CCC(C(C)C)C(OCC(O)CN2CCN(CCN3CCCCC3)CC2)C1 (stereo not drawn) [Compound A0031] |  |  |  | 40.8 | 47.6 | 52.9 | 178.2 | 100.9 | 297.0 | 150.9 | 573.8 | 116.8 | 
